Measured values reported in patent US12545640B2, “Substituted 6,7-dihydro-5H-benzo[7]annulene compounds, processes for their preparation and therapeutic uses thereof” (SANOFI, priority 2019, dated 2026).

Target: T1, ERα (Homo sapiens, UniProt P03372)
T1 construct: host or cells: MCF7 cells
T1 sequence (P03372 1-595): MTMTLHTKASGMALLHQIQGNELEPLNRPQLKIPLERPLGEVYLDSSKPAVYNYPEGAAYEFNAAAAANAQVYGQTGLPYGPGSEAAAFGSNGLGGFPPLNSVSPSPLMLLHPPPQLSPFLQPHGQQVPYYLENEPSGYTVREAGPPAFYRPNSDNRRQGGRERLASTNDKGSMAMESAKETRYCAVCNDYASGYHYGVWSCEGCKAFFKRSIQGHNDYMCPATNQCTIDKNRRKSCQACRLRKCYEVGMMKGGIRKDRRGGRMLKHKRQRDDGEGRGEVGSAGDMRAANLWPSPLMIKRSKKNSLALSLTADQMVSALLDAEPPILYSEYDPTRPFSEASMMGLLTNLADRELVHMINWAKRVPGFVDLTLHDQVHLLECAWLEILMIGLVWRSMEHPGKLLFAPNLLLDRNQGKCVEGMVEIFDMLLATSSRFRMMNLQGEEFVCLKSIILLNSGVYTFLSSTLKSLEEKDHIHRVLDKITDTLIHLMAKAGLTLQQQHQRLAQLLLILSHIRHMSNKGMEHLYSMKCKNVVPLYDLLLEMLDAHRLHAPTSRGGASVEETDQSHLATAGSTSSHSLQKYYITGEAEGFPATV
Experiment: Estrogen receptor degradation activity: breast cancer cell ERα in cell western assay (MCF7 cells)
Type: cell-based
Settings: 4 hours, final concentrations ranging from 3-0.000018 μM, relative to fulvestrant 0.1 μM positive control
Method: Test: Estrogen Receptor Degradation Activity
Said test involves measuring the in vitro degradation activity of the compounds of the invention.
The measurements of the degradation activities were made using a breast cancer cell ERα in cell western assay as described hereunder.
MCF7 cells (ATCC) were seeded in 384 wells microplate (collagen coated) at a concentration of 10000 cells/30 μL, per well in red phenol free MEM alpha medium (invitrogen) containing 5% charcoal dextran striped FBS. The following day, 9 points serial 1:5 dilution of each compound was added to the cells in 2.5 μL at final concentrations ranging either from 3-0.000018 μM (column «% Degradation at 3 μM in table 2) or from 0.3-0.0000018 μM (column «% Degradation at 0.3 μM in table 2), or 0.1 μM for fulvestrant (using as positive control). At 4 hours post compound addition the cells were fixed by adding 25 μL of formalin (final concentration 5% formalin containing 0.1% triton) for 10 minutes at room temperature and then washed twice with PBS. Then, 50 μL of LI-COR blocking buffer containing 0.1% Triton was added to plate for 30 minutes at room temperature. LI-COR blocking buffer was removed and cells were incubated overnight at cold room with 50 μL anti-ER rabbit monoclonal antibody (Thermo scientific MA1-39540) diluted at 1:1000 in LI-COR blocking buffer containing 0.1% tween-20. Wells which were treated with blocking buffer but no antibody were used as background control. Wells were washed twice with PBS (0.1% tween-20) and incubated at 37° C. for 60 minutes in LI-COR (0.1% tween-20) containing goat anti-rabbit antibody Alexa 488 (1:1000) and Syto-64 a DNA dye ([…]). Cells were then washed 3 times in PBS and scanned in ACUMEN explorer (TTP-Labtech). Integrated intensities in the green fluorescence and red fluorescence were measured to determine the levels of ERα and DNA respectively.

Compound	% Degradation At 3 μM [%]
COC(=O)Nc1ccc2c(c1)CCCC(c1ccc(Cl)cc1Cl)=C2c1ccc(O[C@H]2CCN(CCCF)C2)cc1 [Example 25, Methyl (S)-(8-(2,4-dichlorophenyl)-9-(4-((1-(3-fluoropropyl)pyrrolidin-3-yl)oxy)phenyl)-6,7-dihydro-5H-benzo[7]annulen-3-yl)carbamate]	65
N=C(NO)c1ccc2c(c1)CCCC(c1ccc(Cl)cc1Cl)=C2c1ccc(O[C@H]2CCN(CCCF)C2)cc1 [Example 26, (S)-8-(2,4-dichlorophenyl)-9-(4-((1-(3-fluoropropyl)pyrrolidin-3-yl)oxy)phenyl)-N-hydroxy-6,7-dihydro-5H-benzo[7]annulene-3-carboximidamide]	90
O=c1[nH]c(-c2ccc3c(c2)CCCC(c2ccc(Cl)cc2Cl)=C3c2ccc(O[C@H]3CCN(CCCF)C3)cc2)no1 [Example 27, (S)-3-(8-(2,4-dichlorophenyl)-9-(4-((1-(3-fluoropropyl)pyrrolidin-3-yl)oxy)phenyl)-6,7-dihydro-5H-benzo[7]annulen-3-yl)-1,2,4-oxadiazol-5(4H)-one]	71
Cl.O=S1NC(c2ccc3c(c2)CCCC(c2ccc(Cl)cc2Cl)=C3c2ccc(O[C@H]3CCN(CCCF)C3)cc2)=NO1 (stereo partly drawn) [Example 29, 4-(8-(2,4-dichlorophenyl)-9-(4-(((S)-1-(3-fluoropropyl)pyrrolidin-3-yl)oxy)phenyl)-6,7-dihydro-5H-benzo[7]annulen-3-yl)-3H-1,2,3,5-oxathiadiazole 2-oxide hydrochloride]	91
CS(=O)(=O)Nc1ccc2c(c1)CCCC(c1ccc(Cl)cc1Cl)=C2c1ccc(O[C@H]2CCN(CCCF)C2)cc1 [Example 30, (S)—N-(8-(2,4-dichlorophenyl)-9-(4-((1-(3-fluoropropyl)pyrrolidin-3-yl)oxy)phenyl)-6,7-dihydro-5H-benzo[7]annulen-3-yl)methane sulfonamide]	70
O=c1[nH]nc(-c2ccc3c(c2)CCCC(c2ccc(Cl)cc2Cl)=C3c2ccc(O[C@H]3CCN(CCCF)C3)cc2)o1 [Example 31, (S)-5-(8-(2,4-dichlorophenyl)-9-(4-((1-(3-fluoropropyl)pyrrolidin-3-yl)oxy)phenyl)-6,7-dihydro-5H-benzo[7]annulen-3-yl)-1,3,4-oxadiazol-2(3H)-one]	95
CC(C)(C)OC(=O)Nc1ccc2c(c1)CCCC(c1ccc(Cl)cc1Cl)=C2c1ccc(O[C@H]2CCN(CCCF)C2)cc1 [Example 32, Tert-butyl (S)-(8-(2,4-dichlorophenyl)-9-(4-((1-(3-fluoropropyl)pyrrolidin-3-yl)oxy)phenyl)-6,7-dihydro-5H-benzo[7]annulen-3-yl)carbamate]	73
O=c1oc(-c2ccc3c(c2)CCCC(c2ccc(Cl)cc2Cl)=C3c2ccc(O[C@H]3CCN(CCCF)C3)cc2)ns1 [Example 33, (S)-5-(8-(2,4-dichlorophenyl)-9-(4-((1-(3-fluoropropyl)pyrrolidin-3-yl)oxy)phenyl)-6,7-dihydro-5H-benzo[7]annulen-3-yl)-1,3,4-oxathiazol-2-one]	95
FCCCN1CC[C@H](Oc2ccc(C3=C(c4ccc(Cl)cc4Cl)CCCc4cc(-c5noc(=S)[nH]5)ccc43)cc2)C1 [Example 34, (S)-3-(8-(2,4-dichlorophenyl)-9-(4-((1-(3-fluoropropyl)pyrrolidin-3-yl)oxy)phenyl)-6,7-dihydro-5H-benzo[7]annulen-3-yl)-1,2,4-oxadiazole-5(4H)-thione]	66
O=S(=O)(Nc1ccc2c(c1)CCCC(c1ccc(Cl)cc1Cl)=C2c1ccc(O[C@H]2CCN(CCCF)C2)cc1)C(F)(F)F [Example 35, (S)—N-(8-(2,4-dichlorophenyl)-9-(4-((1-(3-fluoropropyl)pyrrolidin-3-yl)oxy)phenyl)-6,7-dihydro-5H-benzo[7]annulen-3-yl)-1,1,1-trifluoromethanesulfonamide]	52
O=c1c(O)c(Nc2ccc3c(c2)CCCC(c2ccc(Cl)cc2Cl)=C3c2ccc(O[C@H]3CCN(CCCF)C3)cc2)c1=O [Example 36, (S)-3-((8-(2,4-dichlorophenyl)-9-(4-((1-(3-fluoropropyl)pyrrolidin-3-yl)oxy)phenyl)-6,7-dihydro-5H-benzo[7]annulen-3-yl)amino)-4-hydroxycyclobut-3-ene-1,2-dione]	93
O=c1[nH]c(-c2ccc3c(c2)CCCC(c2ccc(Cl)cc2Cl)=C3c2ccc(O[C@H]3CCN(CCCF)C3)cc2)ns1 [Example 37, (S)-3-(8-(2,4-dichlorophenyl)-9-(4-((1-(3-fluoropropyl)pyrrolidin-3-yl)oxy)phenyl)-6,7-dihydro-5H-benzo[7]annulen-3-yl)-1,2,4-thiadiazol-5(4H)-one]	98
O=C1OCCN1c1ccc2c(c1)CCCC(c1ccc(Cl)cc1Cl)=C2c1ccc(O[C@H]2CCN(CCCF)C2)cc1 [Example 40, (S)-3-(8-(2,4-dichlorophenyl)-9-(4-((1-(3-fluoropropyl)pyrrolidin-3-yl)oxy)phenyl)-6,7-dihydro-5H-benzo[7]annulen-3-yl)oxazolidin-2-one]	66
O=C1OCCN1c1ccc(C2=C(c3ccc(O[C@H]4CCN(CCCF)C4)cc3)c3ccc(N4CCOC4=O)cc3CCC2)c(Cl)c1 [Example 41, (S)-3-(8-(2-chloro-4-(2-oxooxazolidin-3-yl)phenyl)-9-(4-((1-(3-fluoropropyl)pyrrolidin-3-yl)oxy)phenyl)-6,7-dihydro-5H-benzo[7]annulen-3-yl)oxazolidin-2-one]	74
O=C1NC(=O)C(c2ccc3c(c2)CCCC(c2ccc(Cl)cc2Cl)=C3c2ccc(O[C@H]3CCN(CCCF)C3)cc2)N1 (stereo partly drawn) [Example 43, 5-(8-(2,4-dichlorophenyl)-9-(4-(((S)-1-(3-fluoropropyl)pyrrolidin-3-yl)oxy)phenyl)-6,7-dihydro-5H-benzo[7]annulen-3-yl)imidazolidine-2,4-dione]	95
CON(C)C(=O)c1ccc2c(c1)CCCC(c1ccc(Cl)cc1Cl)=C2c1ccc(O[C@H]2CCN(CCCF)C2)cc1 [Example 44, (S)-8-(2,4-dichlorophenyl)-9-(4-((1-(3-fluoropropyl)pyrrolidin-3-yl)oxy)phenyl)-N-methoxy-N-methyl-6,7-dihydro-5H-benzo[7]annulene-3-carboxamide]	50
FCCCN1CC[C@H](Oc2ccc(C3=C(c4ccc(Cl)cc4Cl)CCCc4cc(-c5n[nH]c(=S)o5)ccc43)cc2)C1 [Example 45, (S)-5-(8-(2,4-dichlorophenyl)-9-(4-((1-(3-fluoropropyl)pyrrolidin-3-yl)oxy)phenyl)-6,7-dihydro-5H-benzo[7]annulen-3-yl)-1,3,4-oxadiazole-2(3H)-thione]	96
CC(=N)Nc1ccc2c(c1)CCCC(c1ccc(Cl)cc1Cl)=C2c1ccc(O[C@H]2CCN(CCCF)C2)cc1 [Example 46, (S)—N-(8-(2,4-dichlorophenyl)-9-(4-((1-(3-fluoropropyl)pyrrolidin-3-yl)oxy)phenyl)-6,7-dihydro-5H-benzo[7]annulen-3-yl)acetimidamide]	95
O=C(Nc1ccc2c(c1)CCCC(c1ccc(Cl)cc1Cl)=C2c1ccc(O[C@H]2CCN(CCCF)C2)cc1)C(F)(F)F [Example 47, (S)—N-(8-(2,4-dichlorophenyl)-9-(4-((1-(3-fluoropropyl)pyrrolidin-3-yl)oxy)phenyl)-6,7-dihydro-5H-benzo[7]annulen-3-yl)-2,2,2-trifluoroacetamide]	78
